The results in this text go back to patent publication US20260306460A1, “COMPOSITION FOR REMOVING AND INHIBITING SENESCENT CELLS, AND USES THEREOF” (LIFECEUTIX CO., LTD., priority 2023, published 2026).

The subject of data set [1] is HMGN1 secreted from senescent cells. Description: HMGN1 secretion (ELISA) from doxorubicin-induced senescent cells, Example 17. Format: cell-based, human. Conditions: senescent untreated = 100%; 30 μM; 90 μM for LX-5211, 5433, 6530, 9105, 9118, 9321, 9602; 2.4 mM for LX-9336. A general note: In an ELISA, binding on a coated surface is turned into a signal by an enzyme label.

Data set [2] concerns HMGN1 secreted from senescent A549 cells. Description: HMGN1 secretion (ELISA) from senescent A549 cells, Example 18, Table 14. Format: cell-based, human. The following applies: doxorubicin-senescent A549, without test compound (DMSO) = 100%; 30 μM (LX-5211, LX-5433, LX-6530, LX-6800, LX-9105, LX-9118, LX-9131, LX-9136, LX-9302, LX-9321, LX-9565, LX-9602 at 90 μM; LX-9336 at 2.4 mM).
Description: On the other hand, in cancer cells treated with doxorubicin, where senescence was induced, the amount of HMGN1 measured under conditions where cells were not treated with the test compound was calculated as 100%, and the amount of HMGN1 was measured under conditions where the senescent cancer cells were treated with the test compound.

In data set [3] the test system is senescent cells. Description: Viability of senescent cells (CellTiter-Glo), Example 17, Table 13. Conditions: for Survival (%): doxorubicin-induced senescent cells, 0 μM = 100. For orientation: Cellular ATP, detected with luciferase, serves as a proxy for viable cell number.
Description: Cells induced to undergo senescence by doxorubicin treatment were treated with test compound at designated concentrations and measured using the CellTiter-Glo Luminescent Cell Viability Assay (Promega).
The test system of data set [4] is senescent A549 cells. Description: Viability of senescent A549 cells (CellTiter-Glo), Example 18, Table 15. Conditions: for Survival (%): doxorubicin-induced senescent A549 cells, 0 μM = 100%.
Description: Senescence-induced cancer cells treated with doxorubicin were treated with the test compound at designated concentrations, and cell viability was measured using the CellTiter-Glo Luminescent Cell Viability Assay (Promega).
Data set [5] has as its system naturally aged C57BL6J mice. As to the kind of experiment: Geriatric depression and anxiety in aged mice, Example 21-8. Format: in vivo, mouse. The following applies: aged mice. The text has this:
The amount of senescent-associated secretory factor (SASP) in serum and tissues collected from mice of Examples 21-5 and 21-6 was reduced by treatment with LX-5701, LX-2101, or LX-2102. It was confirmed that removing senescent cells, which increase with aging in mice, and effectively reducing the amount of senescent-associated secretory factor (SASP) can improve symptoms of geriatric depression and anxiety.

Data set [6] concerns obesity-induced aged C57BL6J mice. Description: Anxiety, depression, lethargy (open field test) in obesity-aged mice, Example 23-4, Table 44. Format: in vivo, mouse. Conditions: obesity-aged mice. Here is the method: 15-week-old male C57BL6J mice (The Jackson Laboratory) were induced to obesity by a high-fat diet using the same method as in Example 9-1 WO2023-085787 A1. After acclimation to the experimental environment for one week, the mice were randomly assigned to experimental and control groups. […] LX-3002 was mixed in distilled water with 4% DMSO, 30% PEG300, and 5% Tween80 and administered orally at a concentration of 10 mg/kg daily for 21 days. LX-5701 was mixed in PBS and administered orally at a concentration of 360 mg/kg daily for 21 days. LX-6807 was mixed in saline and administered intraperitoneally at a concentration of 1 mg/kg daily for 21 days. The control group received only the solution in the same volume. After the end of drug administration, the methods described in each example below were performed.
It was determined that anxiety and depression caused by obesity are not causally related to increased body weight, but rather are caused by the accumulation of senescent cells. Accordingly, an activity assessment (open field test) was performed using the same method as in Example 7-7 of WO2023-085787 A1 to analyze lethargy caused by anxiety and depression caused by obesity in mice. The table below quantitatively represents activity, a criterion for assessing lethargy due to anxiety and depression, under conditions in which aging was induced by obesity and the test compound was not administered or was administered. The activity assessment after obesity-induced aging was calculated as 100% and compared with the activity assessment after test compound treatment.

For data set [7], the system named is naturally aged mice. Description: Anti-aging evaluation in naturally aged mice, Example 31, Table 55.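 Further: Vehicle-dosed control mice received solution alone at matching volume, values compare test-compound-treated aged mice against that control.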 Format: in vivo, mouse.
In data set [8] the test system is bleomycin-induced pulmonary fibrosis mice. Description: Bleomycin-induced pulmonary fibrosis mice, Example 31, Table 56. The data set is classed as in vivo, mouse. Conditions: untreated = 100%. In a few lines:
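Mice with bleomycin-induced pulmonary fibrosis, untreated or given test compound, with vehicle-only controls. Lung tissue collected for RNA extraction and qRT-PCR analysis.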

Data set [9] has as its system carbon tetrachloride-induced liver fibrosis mice. Description: Carbon tetrachloride-induced liver fibrosis mice, Example 31, Table 57. Format: in vivo, mouse. Conditions: CCl4-induced liver fibrosis mice, untreated = 100%. In short, it runs like this: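 Mice with induced hepatic fibrosis received either the test compound or, as controls, an equal volume of vehicle solution alone. Once dosing ended, liver tissue was harvested and total RNA was isolated. cDNA was synthesized from this RNA, and quantitative RT-PCR was run on it to measure hepatic mRNA levels of the fibrosis- and senescence-related genes.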

The mark [10] stands for this setting: Homo sapiens, read-out: Survival (%).
The mark [11] stands for this setting: Homo sapiens, A549, read-out: Survival (%).

Take `CC(=O)[O-].CC(=O)[O-].CCc1c(CC)c2cc3nc(cnc4cc(OCCOCCOCCOC)c(OCCOCCOCCOC)cc4ncc4nc(cc1[n-]2)C(CCCO)=C4C)C(C)=C3CCCO.O.[Gd+3]` [LX-5211, Motexafin Gadolinium]: the HMGN1 stood at 253% in [1] and 262% in data set [2]. Moreover, the “Survival (%)” value stood at 97.6% in [3] (1.1 μM); 92.7% in [3] (10 μM); 87.1% in data set [3] (30 μM); 22.7% in data set [3] (90 μM); 95.2% in data set [3] ([…]); 102.8% in data set [4] (1.1 μM). Also, the “Survival (%)” value in [4] (10 μM) was 88.1%; in [4] (30 μM), 49.2%; in data set [4] (90 μM), 16.6%; in data set [4] ([…]) it was 98.8%.

With `CN1CCc2c(c3ccccc3n2Cc2ccc(C(=O)NO)cc2)C1` [LX-5352, Tubastatin A], the HMGN1 is on record as 194% in data set [1] and 210% in data set [2]. Further, the “Survival (%)” value came out at 87.9% in [3] (1.1 μM); 32.4% in data set [3] (10 μM); 1.9% in data set [3] (30 μM); 61.6% in data set [3] ([…]); 97.6% in data set [4] (1.1 μM); 51.8% in [4] (10 μM). In addition, the “Survival (%)” value in data set [4] (30 μM) is listed as 22.2%; in [4] ([…]), 87.5%.

On to `CN(CC(=O)Nc1nc2ccc(OC(F)(F)F)cc2s1)C(=O)CNC(=O)CN` [LX-6216, Troriluzole], for which the HMGN1 in data set [1] is 221%; in [2] it was 237%. In addition, the “Survival (%)” value in data set [3] (1.1 μM) was found to be 94.5%; in data set [3] (10 μM) it was 68.8%; in [3] (30 μM), 24.3%; in data set [3] ([…]), 87.5%; in data set [4] (1.1 μM), 93.8%; in [4] (10 μM), 53.1%. Moreover, the “Survival (%)” value in [4] (30 μM) is 14.6%; in [4] ([…]), 87.5%.

In the case of `Nc1cc(COc2c(Cl)cc(C[C@H](N)C(=O)O)cc2Cl)c2oc(-c3ccccc3)nc2c1` [LX-6233, Nanvuranlat], the HMGN1 in [1] worked out at 241%; in data set [2] it was 228%. In addition, the “Survival (%)” value in data set [3] (1.1 μM) is 83.7%; in data set [3] (10 μM), 32.7%; in data set [3] (30 μM) it was 11.3%; in [3] ([…]), 61.2%; in data set [4] (1.1 μM) it was 91.8%; in data set [4] (10 μM) it was 34.5%. The “Survival (%)” value is recorded as 10.1% in [4] (30 μM) and 72.4% in [4] ([…]).

With `O=C1C2=C(CCN(Cc3ccccc3)C2)N2CCN=C2N1Cc1ccc(C(F)(F)F)cc1` [LX-7263], the HMGN1 came out at 267% in [1] and 283% in data set [2]. Further, the “Survival (%)” value is listed as 49.2% in data set [3] (1.1 μM), 0.9% in [3] ([…]), 53.6% in data set [4] (1.1 μM) and 11.1% in data set [4] ([…]).

As to `CCCCCC/C=C\CCCCCCCCCC(=O)N[C@H]1[C@H](OC[C@H]2O[C@H](OP(=O)([O-])[O-])[C@H](NC(=O)CC(=O)CCCCCCCCCCC)[C@@H](OCCCCCCCCCC)[C@@H]2O)O[C@H](COC)[C@@H](OP(=O)([O-])[O-])[C@@H]1OCC[C@@H](CCCCCCC)OC.[Na+].[Na+].[Na+].[Na+]` [LX-9136, Eritoran tetrasodium], the HMGN1 in data set [1] is listed as 263%; in [2], 296%. For the same compound, the “Survival (%)” value in data set [3] (1.1 μM) is listed as 84.6%; in data set [3] (10 μM), 71.1%; in data set [3] (30 μM), 23.1%; in data set [3] ([…]) it was 76.9%; in [4] (1.1 μM) it was 91.1%; in data set [4] (10 μM), 70.9%. Moreover, the “Survival (%)” value in data set [4] (30 μM) amounted to 44.8%; in [4] (90 μM) it was 6.7%; in [4] ([…]), 83.4%.

On to `CCCCCCCCCCCCCCCCCCCC(=O)N[C@H]1CC[C@@]2(C)[C@@H](C1)C[C@@H](O)[C@@H]1[C@@H]2C[C@H](O)[C@]2(C)[C@@H]([C@H](C)CCC(=O)O)CC[C@@H]12` [LX-9343, Icomidocholic acid], for which the values for the HMGN1 in data set [1] and in data set [2] were 305% and 274%, respectively. Besides, the “Survival (%)” value in data set [3] (1.1 μM) was determined as 101.2%; in [3] (10 μM), 74.2%; in [3] (30 μM), 30.5%; in [3] ([…]), 84.2%; in [4] (1.1 μM), 103.7%; in [4] (10 μM), 74.4%. Moreover, the “Survival (%)” value came out at 11.9% in [4] (30 μM) and 104.0% in data set [4] ([…]).

In the case of `CCO[C@@H](Cc1ccc(OCCn2c(C)ccc2-c2ccc(SC)cc2)cc1)C(=O)[O-].CCO[C@@H](Cc1ccc(OCCn2c(C)ccc2-c2ccc(SC)cc2)cc1)C(=O)[O-].[Mg+2]` [LX-9717, Saroglitazar Magnesium], the HMGN1 in data set [1] is 226%; in data set [2], 231%. Moreover, the “Survival (%)” value in [3] (1.1 μM) is 101.2%; in data set [3] (10 μM), 73.5%; in data set [3] (30 μM), 21.5%; in [3] ([…]), 92.7%; in [4] (1.1 μM) it was 94.6%; in data set [4] (10 μM) it was 75.4%. Also, the “Survival (%)” value in data set [4] (30 μM) was found to be 10.4%; in [4] ([…]), 87.6%.

Regarding `CN(C)c1cccc(-c2c3c(=O)n(-c4ccccc4Cl)[nH]c3cc(=O)n2C)c1` [LX-9744, Setanaxib], in data set [5], the “amount of SASP, p16, SA-β-gal, lipofuscin” value is listed as “reduced”; the “symptoms of geriatric depression and anxiety” value is “improved”. Further, the geriatric depression entry in data set [6] was “similarly improving geriatric depression”. Further, the “Femur Ctsk mRNA” value in data set [7] (femur, untreated = 100%) amounted to 57%. Moreover, the “Heart Sur2a mRNA” value in [7] (heart, untreated = 1.0) amounted to 2.3 fold. Besides, in data set [7] (joint, untreated = 1.0), the “Joint Col2a1 mRNA” value is on record as 2.4 fold. Further, in [7] (kidney, untreated = 100%), the “Kidney Agtr1a mRNA” value is reported as 65%. Further, in [7] (liver, untreated = 100%), the “Liver IL6 mRNA” value is listed as 58%, the “Liver MMP3 mRNA” value is reported as 49% and the “Liver p16 mRNA” value worked out at 75%. Besides, the “Open Field Test Time in Center” value in [7] (open field test, untreated = 100%) was 171%. In [7] (skin, untreated = 1.0), the “Skin Col1a1 mRNA” value is on record as 2.3 Fold and the “Skin SDF1 mRNA” value came out at 1.7 fold. The “Muscle Mass” value in [7] (untreated 0.64 g) is 0.69 g. In addition, the “Fat Mass” value in data set [7] (untreated 0.82 g) stood at 0.84 g. The compound also returned a Cataract incidence in [7] (untreated 83%) of 78%. The “Lung p16 mRNA” value in data set [8] (lung) is listed as 73 (±3.1) %. The “Col1a1 mRNA” value in data set [8] was 64 (±3.3) %. For the same compound, the “Liver p16 mRNA” value in data set [9] (liver) is 71 (±3.1) %. The “Col1a1 mRNA” value in data set [9] was 48 (±3.5) %. Further, in data set [3] (setting [10]), the viability at 1.1 µM is 101%, the viability at 10 µM turned out to be 69.8% and the viability at 30 µM is 22.3%. In addition, in [4] (setting [11]), the viability at 1.1 µM came to 91.8%, the viability at 10 µM came out at 73.5% and the viability at 30 µM was 25.8%.

In the case of Mirvetuximab [LX-7622], in data set [1], the HMGN1 worked out at 293%. Moreover, the “Survival (%)” value in data set [3] (1.1 μM) stood at 99.1%; in [3] (10 μM), 75.7%; in [3] (30 μM), 17.7%; in data set [3] ([…]) it was 94.1%; in data set [4] (1.1 μM), 88.6%; in data set [4] (10 μM), 71.1%. Further, the “Survival (%)” value is listed as 4.3% in [4] (30 μM) and 81.0% in data set [4] ([…]).
